Assay results as given in ChEMBL document CHEMBL4680113, “Tigliane Diterpenoids as a New Type of Antiadipogenic Agents Inhibit GRα-Dexras1 Axis in Adipocytes” (J Med Chem, 2019).
pEC50: −log10 of the molar value. Calls of active or inactive are those of the source. The rule behind the calls is not given here.

Experiments:
3T3-L1 [1] = assay: Inhibition of adipogenic cocktail-induced C/EBP-alpha mRNA expression in mouse 3T3-L1 cells at 1 uM after 1 day in presence of GR-alpha siRNA by RT-qPCR analysis; type: functional, cell-based
3T3-L1 [2] = assay: Inhibition of adipogenic cocktail-induced ACC mRNA expression in mouse 3T3-L1 cells at 1 uM after 6 days in presence of GR-alpha siRNA by RT-qPCR analysis; type: functional, cell-based; details: time 6.0 day
3T3-L1 [3] = assay: Inhibition of adipogenic cocktail-induced FAS mRNA expression in mouse 3T3-L1 cells incubated for 6 days by RT-qPCR analysis; type: functional, cell-based; details: time 6.0 day
3T3-L1 [4] = assay: Inhibition of GR-alpha in mouse 3T3-L1 cells assessed as reduction in GR-alpha interaction with PPAR-gamma at 1 uM incubated for 8 hrs by ChIP assay; type: cell-based
3T3-L1 [5] = assay: Inhibition of adipogenic cocktail-induced GR-alpha nuclear translocation in mouse 3T3-L1 cells at 1 uM after 8 hrs by immunofluorescence assay; type: cell-based
3T3-L1 [6] = assay: Inhibition of adipogenic cocktail-induced GR-alpha nuclear translocation in mouse 3T3-L1 cells at 1 uM after 8 hrs by Western blot analysis; type: cell-based
3T3-L1 [7] = assay: Inhibition of adipogenic cocktail-induced SCD1 protein expression in mouse 3T3-L1 cells incubated for 6 days by Western blot analysis; type: functional, cell-based; details: time 6.0 day
3T3-L1 [8] = assay: Inhibition of cell differentiation in mouse 3T3-L1 cells assessed as reduction in adipogenic cocktail-induced triglyceride levels at 1 uM incubated for 0 to 6 days by Oil-Red O staining; type: functional, cell-based; details: time 0-6 day
3T3-L1 [9] = assay: Inhibition of adipogenic cocktail-induced GR-beta nuclear translocation in mouse 3T3-L1 cells at 1 uM after 8 hrs by Western blot analysis; type: cell-based
3T3-L1 [10] = assay: Inhibition of adipogenic cocktail-induced C/EBP-delta mRNA expression in mouse 3T3-L1 cells at 1 to 10 uM incubated for 0.5 hrs by RT-qPCR analysis; type: functional, cell-based; details: dose 1-10 µM
3T3-L1 [11] = assay: Inhibition of adipogenic cocktail-induced FAS protein expression in mouse 3T3-L1 cells incubated for 6 days by Western blot analysis; type: functional, cell-based; details: time 6.0 day
3T3-L1 [12] = assay: Inhibition of adipogenic cocktail-induced C/EBPalpha protein expression in mouse 3T3-L1 cells incubated for 24 hrs by Western blot analysis; type: functional, cell-based
3T3-L1 [13] = assay: Lipid lowering activity in mouse 3T3-L1 cells assessed as reduction in adipogenic cocktail-induced triglyceride levels incubated for 6 days by GPO-POD assay; type: functional, cell-based; details: for pEC50: 3T3-L1, 144 h; for inhibition: time 6.0 day
3T3-L1 [14] = assay: Inhibition of adipogenic cocktail-induced ACC mRNA expression in mouse 3T3-L1 cells incubated for 6 days by RT-qPCR analysis; type: functional, cell-based; details: time 6.0 day
3T3-L1 [15] = assay: Inhibition of GR-alpha in mouse 3T3-L1 cells assessed as reduction in GR-alpha interaction with Dexras1 at 1 uM incubated for 8 hrs by ChIP assay; type: cell-based
3T3-L1 [16] = assay: Inhibition of adipogenic cocktail-induced C/EBP-beta protein expression in mouse 3T3-L1 cells at 1 to 10 uM incubated for 0.5 hrs by Western blot analysis; type: functional, cell-based; details: dose 1-10 µM
3T3-L1 [17] = assay: Inhibition of adipogenic cocktail-induced SCD1 mRNA expression in mouse 3T3-L1 cells incubated for 6 days by RT-qPCR analysis; type: functional, cell-based; details: time 6.0 day
3T3-L1 [18] = assay: Lipid lowering activity in mouse 3T3-L1 cells assessed as reduction in adipogenic cocktail-induced triglyceride levels at 10 uM incubated for 6 days by GPO-POD assay; type: functional; details: 3T3-L1, 144 h, time 6 day
3T3-L1 [19] = assay: Inhibition of adipogenic cocktail-induced FAS mRNA expression in mouse 3T3-L1 cells at 1 uM after 6 days in presence of GR-alpha siRNA by RT-qPCR analysis; type: functional, cell-based; details: time 6.0 day
3T3-L1 [20] = assay: Inhibition of adipogenic cocktail-induced C/EBP-beta mRNA expression in mouse 3T3-L1 cells at 1 to 10 uM incubated for 0.5 hrs by RT-qPCR analysis; type: functional, cell-based; details: dose 1-10 µM
3T3-L1 [21] = assay: Inhibition of cell differentiation in mouse 3T3-L1 cells assessed as reduction in adipogenic cocktail-induced triglyceride levels at 1 uM incubated for 0 to 9 days by GPO-POD assay; type: functional, cell-based; details: time 0-9 day
[22] = Selectivity index, ratio of IC50 for cytotoxicity against mouse 3T3-L1 cells to EC50 for lipid lowering activity in mouse 3T3-L1 cells
3T3-L1 [23] = assay: Inhibition of adipogenic cocktail-induced GR-beta nuclear translocation in mouse 3T3-L1 cells at 1 uM after 8 hrs by immunofluorescence assay; type: cell-based
3T3-L1 [24] = assay: Inhibition of adipogenic cocktail-induced C/EBP-delta protein expression in mouse 3T3-L1 cells at 1 to 10 uM incubated for 0.5 hrs by Western blot analysis; type: functional, cell-based; details: dose 1-10 µM
3T3-L1 [25] = assay: Inhibition of adipogenic cocktail-induced ACC protein expression in mouse 3T3-L1 cells incubated for 6 days by Western blot analysis; type: functional, cell-based; details: time 6.0 day
HEK293 = assay: Toxicity in HEK293 cells assessed as reduction in cell viability at 10 uM incubated for 6 days by MTT assay; type: cell-based; details: human, hek293, 144 h, time 6 day
3T3-L1 [26] = assay: Inhibition of GR-alpha in mouse 3T3-L1 cells assessed as reduction in adipogenic cocktail-induced Dexras1 protein expression incubated for 0.5 to 24 hrs by Western blot analysis; type: cell-based; details: time 0.5-24 hrs
3T3-L1 [27] = assay: Inhibition of cell differentiation in mouse 3T3-L1 cells assessed as reduction in adipogenic cocktail-induced triglyceride levels at 1 uM incubated for 0 to 3 days by GPO-POD assay; type: functional, cell-based; details: time 0-3 day
3T3-L1 [28] = assay: Lipid lowering activity in mouse 3T3-L1 cells assessed as reduction in adipogenic cocktail-induced triglyceride levels at 1 uM incubated for 6 days by GPO-POD assay; type: functional, cell-based; details: time 6.0 day
3T3-L1 [29] = assay: Inhibition of adipogenic cocktail-induced GR-beta protein expression in mouse 3T3-L1 cells at 1 to 10 uM incubated for 4 to 24 hrs by Western blot analysis; type: functional, cell-based; details: dose 1-10 µM, time 4-24 hrs
3T3-L1 [30] = assay: Toxicity in mouse 3T3-L1 cells assessed as reduction in cell viability at 10 uM incubated for 6 days by LDH release assay; type: cell-based; details: 3t3-l1, 144 h, time 6 day
HepG2 [31] = assay: Lipid lowering activity in human HepG2 cells assessed as reduction in high-glucose induced triglyceride levels at 1 uM incubated for 24 hrs by GPO-POD assay; type: functional, cell-based
3T3-L1 [32] = assay: Inhibition of adipogenic cocktail-induced C/EBPdelta mRNA expression in mouse 3T3-L1 cells incubated for 24 hrs by RT-qPCR analysis; type: functional, cell-based
3T3-L1 [33] = assay: Inhibition of adipogenic cocktail-induced C/EBPdelta protein expression in mouse 3T3-L1 cells incubated for 24 hrs by Western blot analysis; type: functional, cell-based
HepG2 [34] = assay: Lipid lowering activity in human HepG2 cells assessed as reduction in high-glucose induced triglyceride levels at 10 uM incubated for 24 hrs by GPO-POD assay; type: functional, cell-based
3T3-L1 [35] = assay: Inhibition of adipogenic cocktail-induced PPARgamma mRNA expression in mouse 3T3-L1 cells at 1 uM after 1 day in presence of GR-alpha siRNA by RT-qPCR analysis; type: functional, cell-based
[36] = Toxicity in mouse 3T3-L1 cells assessed as reduction in cell viability incubated for 6 days by MTT assay; type: cell-based
3T3-L1 [37] = assay: Lipid lowering activity in mouse 3T3-L1 cells assessed as reduction in adipogenic cocktail-induced triglyceride levels at 1 to 10 uM by Oil-Red O staining; type: functional, cell-based; details: dose 1-10 µM

Row | Compound | inhibition (3T3-L1 [1]) | inhibition (3T3-L1 [2]) | inhibition (3T3-L1 [3]) | inhibition (3T3-L1 [4]) | inhibition (3T3-L1 [5]) | inhibition (3T3-L1 [6]) | inhibition (3T3-L1 [7]) | inhibition (3T3-L1 [8]) | inhibition (3T3-L1 [9]) | inhibition (3T3-L1 [10]) | inhibition (3T3-L1 [11]) | inhibition (3T3-L1 [12]) | pEC50 (3T3-L1 [13]) | inhibition (3T3-L1 [13]) | inhibition (3T3-L1 [14]) | inhibition (3T3-L1 [15]) | inhibition (3T3-L1 [16]) | inhibition (3T3-L1 [17]) | inhibition at 10 µM (3T3-L1 [18]) [%] | inhibition (3T3-L1 [19]) | further results
1 | CC(=O)O[C@@H]1C(C)=C[C@H]2[C@@H]3C(C)(C)[C@]3(OC(=O)C(C)C)[C@H](OC(=O)c3ccccc3)[C@@H](C)[C@]2(O)[C@@H]2C=C(C)C(=O)[C@@H]12 | Active | Active | Dose-dependent effect | Active | Active | Active | Dose-dependent effect | inactive | inactive | inactive | Dose-dependent effect | Dose-dependent effect | 6.49 | Dose-dependent effect | Dose-dependent effect | Active | inactive | Dose-dependent effect | > 50 | Active | inhibition (3T3-L1 [20]): inactive; inhibition (3T3-L1 [21]): inactive; Selectivity Index [22]: >312; inhibition (3T3-L1 [23]): inactive; inhibition (3T3-L1 [24]): inactive; inhibition (3T3-L1 [25]): Dose-dependent effect; Activity (HEK293): Non-Toxic; inhibition (3T3-L1 [26]): Dose-dependent effect; inhibition (3T3-L1 [27]): Active; inhibition (3T3-L1 [28]): Active; inhibition (3T3-L1 [29]): inactive; Activity (3T3-L1 [30]): Non-Toxic; inhibition (HepG2 [31]): Active; inhibition (3T3-L1 [32]): Dose-dependent effect; inhibition (3T3-L1 [33]): Dose-dependent effect; inhibition (HepG2 [34]): Active; inhibition (3T3-L1 [35]): Active; IC50 at 6 days [36]: > 100 µM; inhibition (3T3-L1 [37]): Active
2 | CC1=C[C@@H]2[C@@H](C1=O)[C@H](O)C(C)=C[C@H]1[C@@H]3C(C)(C)[C@]3(OC(=O)C(C)C)[C@H](OC(=O)c3ccccc3)[C@@H](C)[C@]21O | Active | Active | Dose-dependent effect | Active | Active | Active | Dose-dependent effect | inactive | inactive | inactive | Dose-dependent effect | Dose-dependent effect | 6.21 | Dose-dependent effect | Dose-dependent effect | Active | inactive | Dose-dependent effect | > 50 | Active | inhibition (3T3-L1 [20]): inactive; inhibition (3T3-L1 [21]): inactive; Selectivity Index [22]: 28; inhibition (3T3-L1 [23]): inactive; inhibition (3T3-L1 [24]): inactive; inhibition (3T3-L1 [25]): Dose-dependent effect; Activity (HEK293): Non-Toxic; inhibition (3T3-L1 [26]): Dose-dependent effect; inhibition (3T3-L1 [27]): Active; inhibition (3T3-L1 [28]): Active; inhibition (3T3-L1 [29]): inactive; Activity (3T3-L1 [30]): Non-Toxic; inhibition (HepG2 [31]): Active; inhibition (3T3-L1 [32]): Dose-dependent effect; inhibition (3T3-L1 [33]): Dose-dependent effect; inhibition (HepG2 [34]): Active; inhibition (3T3-L1 [35]): Active; IC50 at 6 days [36]: 17.2 µM; inhibition (3T3-L1 [37]): Active
